Laboratory results published in patent US20240254143A1, “OREXIN RECEPTOR AGONISTS AND USES THEREOF” (JAZZ PHARMACEUTICALS IRELAND LIMITED, priority 2021, published 2024).

Target: T1, human recombinant OX2 (hOX2) receptor (Homo sapiens, UniProt O43614)
T1 construct: host or cells: CHO cells
T1 sequence (O43614 1-444): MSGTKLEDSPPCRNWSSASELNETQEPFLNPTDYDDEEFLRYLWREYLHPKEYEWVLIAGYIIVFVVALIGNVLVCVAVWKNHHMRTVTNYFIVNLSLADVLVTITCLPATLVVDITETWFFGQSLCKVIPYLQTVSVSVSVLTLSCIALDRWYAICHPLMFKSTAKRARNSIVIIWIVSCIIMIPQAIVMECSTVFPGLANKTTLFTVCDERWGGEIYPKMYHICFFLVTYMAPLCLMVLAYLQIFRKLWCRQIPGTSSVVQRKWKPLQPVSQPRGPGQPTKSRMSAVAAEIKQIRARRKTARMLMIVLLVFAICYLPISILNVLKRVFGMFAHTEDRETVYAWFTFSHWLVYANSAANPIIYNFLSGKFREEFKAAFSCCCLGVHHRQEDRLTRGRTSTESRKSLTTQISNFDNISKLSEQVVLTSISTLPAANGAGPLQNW
Assay: IP-1 accumulation assay (IP-One HTRF) in hOX2-CHO cells
Assay type: cell-based
Settings: 60 min at 37° C., mean of at least two independent experiments, read-out: EC50_OX2R Category
Protocol: Example 94: IP-1 Accumulation Assay
The accumulation of Inositol-1 Monophosphate (IP-1) was measured using IP-One HTRF® Terbium cryptate based assay (Cisbio) in human recombinant OX1 (hOX1) and at OX2 (hOX2) receptors expressed in CHO cells (DiscoverX) according to the manufacturer's instructions for cells tested in suspension.
hOX1-CHO and hOX2-CHO cells were seeded into white 384-well plates at a density of 20,000 cells/well in Hank's Balanced Salt Solution (HBSS) containing 20 mM HEPES pH 7.4, 50 mM, LiCl and 0.1% and Bovine Serum Albumin (BSA).
Compounds of the present disclosure were tested in a 11 points concentration response curve (CRC) serially diluted in neat DMSO at 200 fold concentrations and added by Echo acoustic liquid handling (Labcyte) to the cells (0.5% DMSO final in the assay). After 60 min of incubation at 37° C. detection reagents, IP1-d2 tracer and anti-IP1-cryptate were diluted in lysis buffer according to the manufacturer's descriptions and added to the cells.
Following 60 mi incubation at room temperature, time-resolved fluorescence (HTRF) was measured at 615 nm and 665 nm by Envision Multilabel reader (Perkin Elmer) and the HTRF ratio (A665/A615×10^4) was calculated.
The IP-1 accumulation response was expressed as percentage of the maximal OX-A response.
Curve fitting and EC50 estimations were carried out using a four-parameter logistic model using XLfit Software. Mean data of EC50 are calculated from at least two independent experiments performed in duplicates.

| SMILES | EC50 [nM] |
| --- | --- |
| C[C@@H]1C[C@@]2(COCC(=O)N2)[C@H](Cc2cccc(-c3cc(F)cc(F)c3)c2F)N1C(=O)C1CC1F (single isomer, unassigned) [Example 91] | 100 to 1000 |
| C[C@@H]1C[C@@]2(COCC(=O)N2)[C@H](Cc2cccc(-c3cc(F)cc(F)c3)c2F)N1C(=O)C1CC1F (single isomer, unassigned) [Example 92] | 100 to 1000 |
| CCNC(=O)N1CCCC2(CCOC(=O)N2)C1CO[C@H]1CC[C@@H](c2ccccc2)CC1 (stereo partly drawn) [Example 11, (CIS)-N-ethyl-2-oxo-7-({[(CIS)-4-phenylcyclohexyl]oxy}methyl)-3-oxa-1,8-diazaspiro[5.5]undecane-8-carboxamide] | < 100 |
| CCNC(=O)N1CCCC2(CCOC(=O)N2)C1CO[C@H]1CC[C@@H](c2ccccc2)CC1 (stereo partly drawn) [Example 12, (Trans)-N-ethyl-2-oxo-7-({[(CIS)-4-phenylcyclohexyl]oxy}methyl)-3-oxa-1,8-diazaspiro[5.5]undecane-8-carboxamide] | 1000 to 10000 |
| COC(=O)N1CCCC2(CCOC(=O)N2)C1Cc1cccc(-c2ccccc2)c1 (stereo not shown) [Example 19, Methyl 7-({[1,1′-biphenyl]-3-yl}methyl)-2-oxo-3-oxa-1,8-diazaspiro[5.5]undecane-8-carboxylate] | > 10000 |
| CCNC(=O)N1CCC[C@]2(CCOC(=O)N2)[C@H]1Cc1cccc(-c2ccccc2)c1 [Example 26, (6S,7R)-7-({[1,1′-biphenyl]-3-yl}methyl)-N-ethyl-2-oxo-3-oxa-1,8-diazaspiro[5.5]undecane-8-carboxamide] | > 10000 |
| CCNC(=O)N1CCC[C@@]2(CCOC(=O)N2)[C@@H]1Cc1cccc(-c2ccccc2)c1 [Example 27, (6R,7S)-7-({[1,1′-biphenyl]-3-yl}methyl)-N-ethyl-2-oxo-3-oxa-1,8-diazaspiro[5.5]undecane-8-carboxamide] | 100 to 1000 |
| COC(=O)N1CCC[C@@]2(COC(=O)N2)[C@@H]1Cc1cccc(-c2ccccc2)c1 [Example 29, Methyl (5S,6S)-6-({[1,1′-biphenyl]-3-yl}methyl)-2-oxo-3-oxa-1,7-diazaspiro[4.5]decane-7-carboxylate] | > 10000 |
| CCNC(=O)N1[C@H](C)C[C@@]2(COCC(=O)N2)[C@@H]1CO[C@H]1CC[C@@H](c2ccccc2)CC1 [Example 47, (1R,3R,5S)-N-ethyl-3-methyl-7-oxo-1-({[(CIS)-4-phenylcyclohexyl]oxy}methyl)-9-oxa-2,6-diazaspiro[4.5] decane-2-carboxamide] | < 100 |
| CCNC(=O)N1[C@H](C)C[C@]2(COCC(=O)N2)[C@H]1CO[C@H]1CC[C@@H](c2ccccc2)CC1 [Example 48, (1S,3R,5R)-N-ethyl-3-methyl-7-oxo-1-({[(CIS)-4-phenylcyclohexyl]oxy}methyl)-9-oxa-2,6-diazaspiro[4.5] decane-2-carboxamide] | > 10000 |
| C[C@@H]1C[C@@]2(COCC(=O)N2)[C@H](CO[C@H]2CC[C@@H](c3ccccc3)CC2)N1C(=O)C(C)(C)O [Example 49, (1R,3R,5S)-2-(2-hydroxy-2-methylpropanoyl)-3-methyl-1-({[(CIS)-4-phenylcyclohexyl]oxy}methyl)-9-oxa-2,6-diazaspiro[4.5]decan-7-one] | 1000 to 10000 |
| C[C@@H]1C[C@@]2(COCC(=O)N2)[C@H](CO[C@H]2CC[C@@H](c3ccccc3)CC2)N1C(=O)NCC(F)F [Example 50, (1R,3R,5S)-N-(2,2-difluoroethyl)-3-methyl-7-oxo-1-({[(CIS)-4-phenylcyclohexyl]oxy}methyl)-9-oxa-2,6-diazaspiro[4.5]decane-2-carboxamide] | < 100 |
| COCCNC(=O)N1[C@H](C)C[C@@]2(COCC(=O)N2)[C@@H]1CO[C@H]1CC[C@@H](c2ccccc2)CC1 [Example 51, (1R,3R,5S)-N-(2-methoxyethyl)-3-methyl-7-oxo-1-({[(CIS)-4-phenylcyclohexyl]oxy}methyl)-9-oxa-2,6-diazaspiro[4.5]decane-2-carboxamide] | < 100 |
| C[C@@H]1C[C@@]2(COCC(=O)N2)[C@H](CO[C@H]2CC[C@@H](c3ccccc3)CC2)N1C(=O)N1CC(F)(F)C1 [Example 52, (1R,3R,5S)-2-(3,3-difluoroazetidine-1-carbonyl)-3-methyl-1-({[(CIS)-4-phenylcyclohexyl]oxy}methyl)-9-oxa-2,6-diazaspiro[4.5]decan-7-one] | 1000 to 10000 |
| CCNC(=O)N1[C@H](C)C[C@@]2(COCC(=O)N2)[C@@H]1Cc1cccc(-c2cc(F)cc(F)c2)c1F [Example 53, (1S,3R,5S)-N-ethyl-3-methyl-7-oxo-1-({2,3′,5′-trifluoro-[1,1′-biphenyl]-3-yl}methyl)-9-oxa-2,6-diazaspiro[4.5]decane-2-carboxamide] | < 100 |
| C[C@@H]1C[C@@]2(COCC(=O)N2)[C@H](Cc2cccc(-c3cc(F)cc(F)c3)c2F)N1C(=O)C(C)(C)O [Example 54, (1S,3R,5S)-2-(2-hydroxy-2-methylpropanoyl)-3-methyl-1-({2,3′,5′-trifluoro-[1,1′-biphenyl]-3-yl}methyl)-9-oxa-2,6-diazaspiro[4.5]decan-7-one] | 100 to 1000 |
| C[C@@H]1C[C@@]2(COCC(=O)N2)[C@H](CO[C@H]2CC[C@@H](c3ccccc3)CC2)N1C(=O)C1CCC1 [Example 58, (1R,3R,5S)-2-cyclobutanecarbonyl-3-methyl-1-({[(CIS)-4-phenylcyclohexyl]oxy}methyl)-9-oxa-2,6-diazaspiro [4.5]decan-7-one] | < 100 |
| C[C@@H]1C[C@@]2(COCC(=O)N2)[C@H](CO[C@H]2CC[C@@H](c3ccccc3)CC2)N1C(=O)[C@H]1C[C@@H](F)C1 [Example 59, (1R,3R,5S)-3-methyl-2-[(1s,3s)-3-fluorocyclobutanecarbonyl]-1-({[(CIS)-4-phenylcyclohexyl]oxy}methyl)-9-oxa-2,6-diazaspiro[4.5]decan-7-one] | < 100 |
| C[C@@H]1C[C@@]2(COCC(=O)N2)[C@H](CO[C@H]2CC[C@@H](c3ccccc3)CC2)N1C(=O)C12CC(C1)C2 [Example 60, (1R,3R,5S)-2-{bicyclo[1.1.1]pentane-1-carbonyl}-3-methyl-1-({[(CIS)-4-phenylcyclohexyl]oxy}methyl)-9-oxa-2,6-diazaspiro[4.5]decan-7-one] | 1000 to 10000 |
| C[C@@H]1C[C@@]2(COCC(=O)N2)[C@H](CO[C@H]2CC[C@@H](c3ccccc3)CC2)N1C(=O)OCC(F)F [Example 61, 2,2-difluoroethyl (1R,3R,5S)-3-methyl-7-oxo-1-({[(CIS)-4-phenylcyclohexyl]oxy}methyl)-9-oxa-2,6-diazaspiro [4.5]decane-2-carboxylate] | < 100 |
| C[C@@H]1C[C@@]2(COCC(=O)N2)[C@H](CO[C@H]2CC[C@@H](c3ccccc3)CC2)N1C(=O)NCC(F)(F)F [Example 62, (1R,3R,5S)-3-methyl-7-oxo-1-({[(CIS)-4-phenylcyclohexyl]oxy}methyl)-N-(2,2,2-trifluoroethyl)-9-oxa-2,6-diazaspiro[4.5]decane-2-carboxamide] | < 100 |
| COc1cccnc1N1[C@H](C)C[C@@]2(COCC(=O)N2)[C@@H]1CO[C@H]1CC[C@@H](c2ccccc2)CC1 [Example 63, (1R,3R,5S)-2-(3-methoxypyridin-2-yl)-3-methyl-1-({[(CIS)-4-phenylcyclohexyl]oxy}methyl)-9-oxa-2,6-diazaspiro[4.5]decan-7-one] | 100 to 1000 |
| C[C@@H]1C[C@@]2(COCC(=O)N2)[C@H](CO[C@H]2CC[C@@H](c3ccccc3)CC2)N1c1nnnn1C [Example 64, (1R,3R,5S)-3-methyl-2-(1-methyl-1H-1,2,3,4-tetrazol-5-yl)-1-({[(CIS)-4-phenylcyclohexyl]oxy}methyl)-9-oxa-2,6-diazaspiro[4.5]decan-7-one] | < 100 |
| O=C1COC[C@@]2(C[C@@H](C(F)F)N(C(=O)[C@H]3C[C@@H](F)C3)[C@H]2Cc2cccc(-c3cc(F)cc(F)c3)c2F)N1 [Example 80, (1S,3S,5S)-3-(difluoromethyl)-2-[(1s,3s)-3-fluorocyclobutanecarbonyl]-1-({2,3′,5′-trifluoro-[1,1′-biphenyl]-3-yl}methyl)-9-oxa-2,6-diazaspiro[4.5]decan-7-one] | 100 to 1000 |
| C[C@@H]1C[C@@]2(COCC(=O)N2)[C@H](Cc2cccc(-c3cc(F)cc(F)c3)c2F)N1C(=O)C1CCC1 [Example 81, (1S,3R,5S)-2-cyclobutanecarbonyl-3-methyl-1-({2,3′,5′-trifluoro-[1,1′-biphenyl]-3-yl}methyl)-9-oxa-2,6-diazaspiro[4.5]decan-7-one] | < 100 |
